PMC8275550, “Developmental Neurotoxicity of Fipronil and Rotenone on a Human Neuronal In Vitro Test System” (Neurotoxicity Research, 2021)
“Also recorded” adds a separate entry of the source. Read-outs that look alike come from different tables or passages of the source.

Experiments:
NT2 neurons = assay: cells; assay type: cell-based, human; details: for Effect on neurite outgrowth, endpoint specific control compounds: concentration-response curves, supplementary Fig. 1
Description: Two photographs/well at × 20 magnification were taken.

NT2 precursor cells [1] = details: 100 nM cytochalasin D, 44 h, without affecting viability; ref Stern et al. [2014]; cited from earlier work
[2] = tested on: differentiating NT2 cells; assay: cells; assay type: cell-based, human; details: for IC50: NT2, 120 h, read-out: IC50 neuronal differentiation (ß-tub III, spec. EP)
Procedure: (§1) As established in our previous study (Stern et al. [2014]), cells were seeded into 96-well plates (Corning Costar, Kaiserslautern, Germany) at 80,000 cells per well and incubated in DMEM/F12 with 10 µM retinoic acid (RA) for 4 days (one media change). Cells were incubated for further 5 days (one media change) in media containing 10 µM RA and up to seven concentrations of a test compound. On day 9 (5-day exposition), cell viability was measured using a resazurin reduction assay (Trinova Biochem, Giessen, Germany). Subsequently, cells were fixed for 15 min in PFA and immunolabeled for ß-tubulin type III as above (Fig. 1a). For control purposes, photographs were taken at × 20 magnification as above. Neuronal differentiation was determined by measuring red fluorescence (excitation 568 nm, emission 603 nm) in a multiwell-plate reader (Infinite 200, TECAN, Germany). As a confirmation of the viability data, cell number was also quantified by measuring DAPI fluorescence (excitation 350 nm, emission 488 nm).

[3] = Resazurin reduction viability assay in the neuronal differentiation assay; assay type: cell-based, human; details: human
Procedure: as §1

[4] = tested on: differentiating NT2 cells; assay: as above; assay type: cell-based, human; details: differentiation assay
Procedure: as §1

NT2 precursor cells [5] = assay: cells; assay type: cell-based, human; details: for IC50: read-out: IC50 migration (spec. EP); for Rescue by NAC, migration / Rescue by Y-27632, migration: yes = at least one concentration of rescuing compound with specific endpoint significantly less affected
Procedure: (§2) As established before (Stern et al. [2014]), NT2 precursor cells were seeded in 96-mm bacteriological grade Petri dishes (Greiner, Hamburg, Germany) at a density of 4 × 10^6–5 × 10^6 cells per dish. Within 24 h, cells formed free-floating spherical aggregates of 300–800 µm diameter. On the first day, 10 ml of culture medium was added to each Petri dish. On the next days, medium with 10 μM retinoic acid (RA) was added and changed every 2–3 days by transferring the cell suspension to centrifuge tubes and centrifuge at 200 × g for 7 min. After 9 days in culture, aggregates were gently resuspended using a Pasteur pipette, and seeded at 60,000 cells per well into black 96-well plates with flat transparent bottom (Nunc). Plates were lined with poly-D-lysine and laminin (10 µg/ml each), equipped with silicone stoppers from the Oris Cell Migration Assay (AMS Biotechnology, Abingdon, UK). Cells were allowed to adhere overnight. On the next day, stoppers were pulled leaving a monolayer of cells with a circular hole of 2-mm diameter. […] After one wash in PBS, cells were fixed for 15 min in PFA, washed twice in PBS-T and stained with DAPI (0.5 µg/ml) for 5 min, followed by two washes in PBS. A black 96-hole plastic mask leaving a central circular area of 2-mm diameter for each well was clipped to the bottom of the plate. This allows viewing only those cells that had migrated into the free areas left by the silicone stoppers during seeding (Fig. 1b). Migration was quantified by taking two photographs of each well and measuring the distance of the migration front from the black margin of the mask in using ImageJ. Occasional asymmetries caused by slight inaccuracies of silicone stopper placement were compensated by averaging measurements in four quadrants per well. […] Average null-migration values were subtracted from migrated distance before evaluation.

[6] = Resazurin reduction viability assay in the cell migration assay; assay type: cell-based; details: human
Procedure: as §2

neurospheres = tested on: neurospheres; parameters: method as in Ishido and Suzuki ([2010]); details: general cytotoxicity not tested; ref Ishido and Suzuki ([2010]); read-out: IC50 cell migration out of neurospheres; cited from earlier work
[7] = human
Procedure: (§3) Dispersed cells were seeded into two identical poly-D-lysine (10 µg/ml) coated 96-well plates (Corning Costar, Kaiserslautern, Germany) at a density of 10,000 cells per well. Cultures were exposed to up to seven different concentrations of a test compound in DMEM/F12 (six technical replicates per concentration) for 24 h. One plate was immediately fixed in 4% paraformaldehyde in PBS (PFA) for 15 min. After 24 h, while a resazurin reduction assay (2 h) was performed on the other plate. […] Fixed cells were washed in PBS containing 0.1% Triton X100 (PBS-T) and immunolabeled for ß-tubulin type III (monoclonal anti ßtubIII, 1:20,000) using a red fluorescent secondary antibody (goat anti mouse-alexaFluor568, Invitrogen, Germany, 1:250) and DAPI (0.1 µg/ml) as nuclear counterstain. Cells were examined on a Zeiss Axiovert 200 inverted microscope equipped with a CoolSnap camera (Photometrics, Tucson, AZ, USA) and MetaMorph software (Molecular Devices, Sunnyvale, CA, USA), or a Zeiss Axiocam50 mono and Zeiss ZENlite 2.6 blue edition software. Two photographs/well at × 20 magnification were taken. Lengths of all neurites in the field of view were measured in ImageJ (http://imagej.nih.gov/ij) using the ‚segmented line ‘ tool (Fig. 1c) and divided by the number of ß-tubulin III-positive cells.

[8] = tested on: NT2 cells treated for 2 weeks with retinoic acid (2wkRA); details: […]
Procedure: as §3

[9] = tested on: differentiating NT2 cells; details: 333 µM sodium valproate; ref Stern et al. [2014]; cited from earlier work
[10] = tested on: differentiating NT2 cells; parameters: method as in Stern et al. [2014]; details: 333 µM sodium valproate; ref Stern et al. [2014]; cited from earlier work
[11] = cited from earlier work
in vitro = details: human
Procedure: as §3

[12] = yes = at least one concentration of rescuing compound with specific endpoint significantly less affected than by test compound alone
[13] = yes = at least one concentration of rescuing compound with specific endpoint significantly less affected
[14] = migration assay, 44 h exposure, > = highest tested concentration, read-out: IC50 general cytotoxicity (resazurin), unspec. EP
[15] = co-applied with 2.4 µM rotenone

C=C1[C@@H](C)[C@H]2[C@H](Cc3ccccc3)NC(=O)[C@]23[C@H](OC(C)=O)/C=C/[C@@](C)(O)C(=O)[C@@H](C)C/C=C/[C@H]3[C@@H]1O [Cytochalasin D, [(1R,2R,3E,5R,7S,9E,11R,12S,14S,15R,16S)-16-Benzyl-5,12-dihydroxy-5,7,14-trimethyl-13-methylidene-6,18-dioxo-17-azatricyclo[9.7.0.0^1,15]octadeca-3,9-dien-2-yl] acetate]
activity at 0.1 µM (NT2 neurons; Homo sapiens, Neuron, 100 nM cytochalasin D, read-out: Neurite outgrowth (% of control), endpoint-specific control): < 25%
Effect on neurite outgrowth, endpoint specific control compounds (NT2 neurons): specifically inhibits neurite outgrowth
Effect on cell motility, null-migration reference (NT2 precursor cells [1]): completely inhibits cell motility

C=C(C)[C@H]1Cc2c(ccc3c2O[C@@H]2COc4cc(OC)c(OC)cc4[C@@H]2C3=O)O1 [Rotenone, (1S,6R,13S)-16,17-Dimethoxy-6-prop-1-en-2-yl-2,7,20-trioxapentacyclo[11.8.0.0^3,11.0^4,8.0^14,19]henicosa-3(11),4(8),9,14,16,18-hexaen-12-one]
IC50 (NT2 neurons; Homo sapiens, Neuron, 24 h, read-out: IC50 neurite outgrowth (spec. EP)): 0.55 µM
IC50 (NT2 neurons; Homo sapiens, Neuron, 24 h, read-out: IC50 spec. EP (neurite outgrowth)): 0.55 µM
activity at 0.123 µM (NT2 neurons; Homo sapiens, Neuron, read-out: Neurite outgrowth (% of control)): < 75%
Rescue by NAC, neurite outgrowth (NT2 neurons; [12]): no
Rescue by Y-27632, neurite outgrowth (NT2 neurons; [12]): Yes
ß-tubulin III-expression (% of control) ([2]; 1.2 nM rotenone, highest non-cytotoxic concentration): below 75%
IC50 ([2]; Homo sapiens): 0.00518 µM
Rescue by NAC, neuronal differentiation [2, 13]: no
Rescue by Y-27632, neuronal differentiation [2, 13]: No
IC50 at 5 days ([3]; differentiation assay, 5 days exposure, > = highest tested concentration, read-out: IC50 general cytotoxicity (resazurin), unspec. EP): > 0.1 µM
viability at 5 days, 0.1 µM ([3]; highest tested rotenone concentration (100 nM), read-out: General viability (% of control)): 72%
Highest non-cytotoxic concentration (viability > 90%) [4]: 1.2 nM
Concentration at which a significant reduction of migration could already be observed (NT2 precursor cells [5]; 44 h exposure): 4.12 nM
IC50 (NT2 precursor cells [5]; Homo sapiens, 44 h): 0.051 µM
Rescue by NAC, migration (NT2 precursor cells [5]): no
Rescue by Y-27632, migration (NT2 precursor cells [5]): Yes
viability at 44 h, 0.333 µM ([6]; highest tested rotenone concentration (333 nM), read-out: General viability (% of control)): > 70%
IC50 at 44 h [6, 14]: > 0.333 µM
IC50 (neurospheres): ~0.2 µM
IC50 at 24 h [7]: > 10 µM
viability at 24 h, 10 µM ([7]; General cell viability (% of control), highest tested concentration, 10 µM rotenone): ~80%
Highest non-cytotoxic concentration (viability > 90%) [8]: 123 nM

CCCC(CCC)C(=O)[O-].[Na+] [Sodium valproate, Sodium; 2-propylpentanoate]
Neuronal differentiation (% of control), endpoint-specific control [9]: less than 50%
General viability (% of control), endpoint-specific control [10]: above 85%

N#Cc1nn(-c2c(Cl)cc(C(F)(F)F)cc2Cl)c(N)c1S(=O)(=O)C(F)(F)F [Fipronil sulfone, 5-Amino-1-[2,6-dichloro-4-(trifluoromethyl)phenyl]-4-(trifluoromethylsulfonyl)pyrazole-3-carbonitrile]
IC50 (NT2 neurons; Homo sapiens, 24 h exposure, total neurite length/neuron, normalized to solvent control, read-out: IC50 neurite outgrowth (spec. EP)): 34 µM
IC50 ([2]; Homo sapiens, 5 days exposure): 9.77 µM
activity at 7.81 µM ([2]; Homo sapiens, NT2, 7.81 µM fipronil sulfone, read-out: Neuronal differentiation (% of control)): 70%
Rescue by NAC, neuronal differentiation [2, 13]: no
viability ([3]; 7.81 µM fipronil sulfone, read-out: General viability (% of control)): ~100%
IC50 ([3]; differentiation assay, 5 days exposure, read-out: IC50 general cytotoxicity (resazurin), unspec. EP): 15.5 µM
Concentrations with significant differences between viability and migration (NT2 precursor cells [5]; 44 h exposure): ≥ 15.63 µM
activity at 15.63 µM (NT2 precursor cells [5]; Homo sapiens, 15.63 µM fipronil sulfone, read-out: Migration (% of control)): < 40%
IC50 (NT2 precursor cells [5]; Homo sapiens, 44 h exposure): 14.2 µM
Rescue by NAC, migration (NT2 precursor cells [5]): yes
Rescue by Y-27632, migration (NT2 precursor cells [5]): Yes
viability ([6]; 15.63 µM fipronil sulfone, read-out: Viability (% of control)): 85%
IC50 [6, 14]: > 62.5 µM
Blood concentration in workers with occupational fipronil exposure ([11]; ref Herin et al. [2011]): up to 0.1 µM
Concentration measured in umbilical cord blood ([11]; urban population of South Korea, ref Kim et al. [2019]): up to 1.1 nM
IC50 (in vitro): 43 µM

CC(=O)N[C@@H](CS)C(=O)O [NAC, (2R)-2-Acetamido-3-sulfanylpropanoic acid]
Effect on rotenone-induced NT2 neurite outgrowth inhibition (NT2 neurons; [15]): could not change
Effect on fipronil inhibition of NT2 differentiation ([2]; 370 µM NAC and higher, with 15 µM fipronil): completely negated
EC50 ([2]; Homo sapiens, NT2, co-applied with 15 µM fipronil, read-out: EC50 rescue of fipronil-inhibited neuronal differentiation): 94.7 µM
Effect on rotenone inhibition of ß-tubulin III-immunofluorescence ([2]; co-applied with 11 nM rotenone, any concentration): could not alleviate
EC50 (NT2 precursor cells [5]; Homo sapiens, all three tested endpoints as worded in abstract, read-out: EC 50 ameliorating the inhibitory effects of fipronil on all three tested endpoints (abstract)): 84 to 164 µM
EC50 (NT2 precursor cells [5]; Homo sapiens, co-applied with 15 µM fipronil sulfone, only slight alleviation, read-out: EC50 alleviation of fipronil sulfone-inhibited migration (NAC)): 84.6 µM
EC50 (NT2 precursor cells [5]; Homo sapiens, co-applied with 50 µM fipronil, read-out: EC50 alleviation of fipronil-inhibited migration): 161 µM
Effect on rotenone inhibition of migration (NT2 precursor cells [5]; co-applied with 122 nM rotenone, any concentration): could not be alleviated
Effect on fipronil sulfone inhibition of migration (NT2 precursor cells [5]; co-applied with 15 µM fipronil sulfone): only slightly alleviated
Effect on fipronil-induced inhibition of migration (NT2 precursor cells [5]; co-applied with 50 µM fipronil): could completely counteract

C[C@@H](N)[C@H]1CC[C@H](C(=O)Nc2ccncc2)CC1 [Y-27632, 4-[(1R)-1-Aminoethyl]-N-pyridin-4-ylcyclohexane-1-carboxamide]
activity at 50 µM (NT2 neurons; Homo sapiens, Neuron, 50 µM Y-27632, without affecting general viability, read-out: Neurite outgrowth (% of control), endpoint-specific control): > 125%
EC50 (NT2 neurons; Homo sapiens, Neuron, co-applied with 2.4 µM rotenone, read-out: EC50 compensation of rotenone-inhibited neurite outgrowth): 12.1 µM
Effect on rotenone-induced NT2 neurite outgrowth inhibition (NT2 neurons; [15]): could alleviate
activity at 50 µM (NT2 precursor cells [5]; Homo sapiens, 50 µM Y-27632, without affecting general viability, read-out: Precursor cell migration (% of control), endpoint-specific control): > 125%
EC50 (NT2 precursor cells [5]; Homo sapiens, co-applied with 122 nM rotenone, read-out: EC50 alleviation of rotenone-inhibited migration): 8.3 µM
EC50 (NT2 precursor cells [5]; Homo sapiens, co-applied with 15 µM fipronil sulfone, read-out: EC50 alleviation of fipronil sulfone-inhibited migration (Y-27632)): 4.22 µM
Effect on fipronil-induced inhibition of migration (NT2 precursor cells [5]; co-applied with 50 µM fipronil): could not alleviate; also recorded: could not be alleviated

COc1cc2c(c(OC)c1OC)-c1ccc(OC)c(=O)cc1[C@@H](NC(C)=O)CC2 [Colchicine]
Effect on neurite outgrowth, endpoint specific control compounds (NT2 neurons): specifically inhibits neurite outgrowth

CC(C)=CCC/C(C)=C/CC/C(C)=C/CC[C@]1(C)CCc2c(C)c(O)c(C)c(C)c2O1 [α-tocotrienol, (2R)-2,5,7,8-Tetramethyl-2-[(3E,7E)-4,8,12-trimethyltrideca-3,7,11-trienyl]-3,4-dihydrochromen-6-ol]
Effect on rotenone-induced NT2 neurite outgrowth inhibition (NT2 neurons; [15]): could not change
